The results in this text go back to the supplement of paper PMC10307832.

What all share (assay): relative viability (nuclei count vs DMSO), 5 days (fraction); higher = more cells survive
Compound in the assay “Doxorubicin + Vorinostat”: COc1cccc2c1C(=O)c1c(O)c3c(c(O)c1C2=O)C[C@@](O)(C(=O)CO)C[C@@H]3O[C@H]1C[C@H](N)[C@H](O)[C@H](C)O1 [Doxorubicin] + O=C(CCCCCCC(=O)Nc1ccccc1)NO [Vorinostat] (partner 1 µM)
A digest of the protocol:
(§1)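 Relative viability divides the nuclei count in treated wells by that in vehicle wells. Lung cancer cell lines were seeded in 1536-well plates, dosed by pin tool the next day, and fixed and stained after 5 days in one step with final 0.05% Triton X-100, 1% formaldehyde and 1 ug/ml Hoechst. Dosing was a single drug or a fixed anchor-drug dose plus five library-drug doses (not always all listed) in √10 steps, and values are medians of duplicate plates imaged at 4×.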

Compound in the assay “BAY61-3606 + Alpelisib”: COC1=C(C=C(C=C1)C2=CC3=NC=CN3C(=N2)NC4=C(C=CC=N4)C(=O)N)OC [BAY61-3606] + Cc1nc(NC(=O)N2CCC[C@H]2C(N)=O)sc1-c1ccnc(C(C)(C)C(F)(F)F)c1 [Alpelisib] (partner 2 µM)
A digest of the protocol: as §1

Compound in the assay “BAY61-3606 + Phenformin”: COC1=C(C=C(C=C1)C2=CC3=NC=CN3C(=N2)NC4=C(C=CC=N4)C(=O)N)OC [BAY61-3606] + N=C(N)NC(=N)NCCc1ccccc1 [Phenformin] (partner 250 µM)
A digest of the protocol:
as §1

Compound in the assay “BAY61-3606 + Trametinib”: COC1=C(C=C(C=C1)C2=CC3=NC=CN3C(=N2)NC4=C(C=CC=N4)C(=O)N)OC [BAY61-3606] + CC(=O)Nc1cccc(-n2c(=O)n(C3CC3)c(=O)c3c(Nc4ccc(I)cc4F)n(C)c(=O)c(C)c32)c1 [Trametinib] (partner 0.02 µM)
A digest of the protocol:
as §1

Turning to NCI-H3122, the relative viability with Doxorubicin + Vorinostat (first compound 0.001 µM) was 0.839; with Doxorubicin + Vorinostat (first compound 0.003162 µM), 0.982; in the assay with Doxorubicin + Vorinostat (first compound 0.01 µM), 0.853; with Doxorubicin + Vorinostat (first compound 0.03162 µM), 0.907; in the assay with Doxorubicin + Vorinostat (first compound 0.1 µM), 0.998; with BAY61-3606 + Alpelisib (first compound 0.02 µM), 0.797. The relative viability with BAY61-3606 + Alpelisib (first compound 0.06325 µM) was determined as 0.879; in the assay with BAY61-3606 + Alpelisib (first compound 0.2 µM), 0.868; with BAY61-3606 + Alpelisib (first compound 0.6325 µM), 0.833; in the assay with BAY61-3606 + Alpelisib (first compound 2 µM) it was 0.69; with BAY61-3606 + Phenformin (first compound 0.02 µM), 0.418; with BAY61-3606 + Phenformin (first compound 0.06325 µM), 0.308. Besides, the relative viability is 0.386 with BAY61-3606 + Phenformin (first compound 0.2 µM); 0.42 with BAY61-3606 + Phenformin (first compound 0.6325 µM); 0.384 with BAY61-3606 + Phenformin (first compound 2 µM); 0.235 with BAY61-3606 + Trametinib (first compound 0.02 µM); 0.24 with BAY61-3606 + Trametinib (first compound 0.06325 µM); 0.246 with BAY61-3606 + Trametinib (first compound 0.2 µM). The relative viability amounted to 0.242 in the assay with BAY61-3606 + Trametinib (first compound 0.6325 µM) and 0.249 in the assay with BAY61-3606 + Trametinib (first compound 2 µM).
For PC-3 [JPC-3], the relative viability with Doxorubicin + Vorinostat (first compound 0.001 µM) was found to be 1.02; with Doxorubicin + Vorinostat (first compound 0.003162 µM) it was 0.946; in the assay with Doxorubicin + Vorinostat (first compound 0.01 µM) it was 0.824; in the assay with Doxorubicin + Vorinostat (first compound 0.03162 µM) it was 0.747; in the assay with Doxorubicin + Vorinostat (first compound 0.1 µM) it was 0.416; with BAY61-3606 + Alpelisib (first compound 0.02 µM) it was 1.05. Further, the relative viability with BAY61-3606 + Alpelisib (first compound 0.06325 µM) worked out at 1.08; with BAY61-3606 + Alpelisib (first compound 0.2 µM), 1.04; in the assay with BAY61-3606 + Alpelisib (first compound 0.6325 µM), 1.05; with BAY61-3606 + Alpelisib (first compound 2 µM) it was 0.878; in the assay with BAY61-3606 + Phenformin (first compound 0.06325 µM), 0.491; with BAY61-3606 + Phenformin (first compound 0.2 µM), 0.476. Moreover, the relative viability in the assay with BAY61-3606 + Phenformin (first compound 0.6325 µM) was 0.454; in the assay with BAY61-3606 + Phenformin (first compound 2 µM), 0.463; with BAY61-3606 + Trametinib (first compound 0.02 µM) it was 0.772; with BAY61-3606 + Trametinib (first compound 0.06325 µM), 0.668; in the assay with BAY61-3606 + Trametinib (first compound 0.2 µM), 0.741; with BAY61-3606 + Trametinib (first compound 0.6325 µM), 0.726. In the assay with BAY61-3606 + Trametinib (first compound 2 µM), the relative viability came to 0.654.
As to PC-14, the relative viability turned out to be 0.655 in the assay with Doxorubicin + Vorinostat (first compound 0.001 µM); 0.781 with Doxorubicin + Vorinostat (first compound 0.003162 µM); 0.709 with Doxorubicin + Vorinostat (first compound 0.01 µM); 0.182 with Doxorubicin + Vorinostat (first compound 0.03162 µM); 0.0946 with Doxorubicin + Vorinostat (first compound 0.1 µM); 0.996 with BAY61-3606 + Alpelisib (first compound 0.02 µM). Moreover, the relative viability with BAY61-3606 + Alpelisib (first compound 0.06325 µM) is 0.995; with BAY61-3606 + Alpelisib (first compound 0.2 µM) it was 0.929; with BAY61-3606 + Alpelisib (first compound 0.6325 µM) it was 1.06; with BAY61-3606 + Alpelisib (first compound 2 µM), 0.841; with BAY61-3606 + Phenformin (first compound 0.02 µM) it was 0.752; with BAY61-3606 + Phenformin (first compound 0.06325 µM), 0.357. Besides, the relative viability in the assay with BAY61-3606 + Phenformin (first compound 0.2 µM) stood at 0.579; in the assay with BAY61-3606 + Phenformin (first compound 0.6325 µM), 0.532; in the assay with BAY61-3606 + Phenformin (first compound 2 µM), 0.536; with BAY61-3606 + Trametinib (first compound 0.02 µM), 0.732; in the assay with BAY61-3606 + Trametinib (first compound 0.06325 µM), 0.887; with BAY61-3606 + Trametinib (first compound 0.2 µM), 0.732. The relative viability with BAY61-3606 + Trametinib (first compound 0.6325 µM) is 1.01; with BAY61-3606 + Trametinib (first compound 2 µM), 0.607.
RERF-LC-KJ: the relative viability with Doxorubicin + Vorinostat (first compound 0.001 µM) is 0.672; with Doxorubicin + Vorinostat (first compound 0.003162 µM), 0.721; in the assay with Doxorubicin + Vorinostat (first compound 0.01 µM), 0.632; with Doxorubicin + Vorinostat (first compound 0.03162 µM), 0.469; in the assay with Doxorubicin + Vorinostat (first compound 0.1 µM), 0.487; in the assay with BAY61-3606 + Alpelisib (first compound 0.02 µM), 0.957. The relative viability worked out at 0.751 with BAY61-3606 + Alpelisib (first compound 0.06325 µM); 0.765 with BAY61-3606 + Alpelisib (first compound 0.2 µM); 0.853 with BAY61-3606 + Alpelisib (first compound 0.6325 µM); 0.629 with BAY61-3606 + Alpelisib (first compound 2 µM); 0.417 with BAY61-3606 + Phenformin (first compound 0.02 µM); 0.404 in the assay with BAY61-3606 + Phenformin (first compound 0.06325 µM). Further, the relative viability was 0.424 in the assay with BAY61-3606 + Phenformin (first compound 0.2 µM); 0.467 with BAY61-3606 + Phenformin (first compound 0.6325 µM); 0.343 with BAY61-3606 + Phenformin (first compound 2 µM); 0.868 with BAY61-3606 + Trametinib (first compound 0.02 µM); 0.846 in the assay with BAY61-3606 + Trametinib (first compound 0.06325 µM); 0.901 in the assay with BAY61-3606 + Trametinib (first compound 0.2 µM). Besides, the results for the relative viability in the assay with BAY61-3606 + Trametinib (first compound 0.6325 µM) and with BAY61-3606 + Trametinib (first compound 2 µM) were 0.866 and 0.676, respectively.
On to SK-LU-1, for which the relative viability with Doxorubicin + Vorinostat (first compound 0.001 µM) is 0.719; in the assay with Doxorubicin + Vorinostat (first compound 0.003162 µM), 0.87; in the assay with Doxorubicin + Vorinostat (first compound 0.01 µM), 0.674; in the assay with Doxorubicin + Vorinostat (first compound 0.03162 µM) it was 0.494; in the assay with Doxorubicin + Vorinostat (first compound 0.1 µM), 0.461; in the assay with BAY61-3606 + Alpelisib (first compound 0.02 µM), 1.37. Also, the relative viability is 0.951 with BAY61-3606 + Alpelisib (first compound 0.06325 µM); 1.04 with BAY61-3606 + Alpelisib (first compound 0.2 µM); 0.844 in the assay with BAY61-3606 + Alpelisib (first compound 0.6325 µM); 0.421 with BAY61-3606 + Alpelisib (first compound 2 µM); 0.563 with BAY61-3606 + Phenformin (first compound 0.02 µM); 0.451 in the assay with BAY61-3606 + Phenformin (first compound 0.06325 µM). For the same cell line, the relative viability in the assay with BAY61-3606 + Phenformin (first compound 0.2 µM) was 0.569; with BAY61-3606 + Phenformin (first compound 0.6325 µM) it was 0.506; with BAY61-3606 + Phenformin (first compound 2 µM), 0.284; with BAY61-3606 + Trametinib (first compound 0.02 µM) it was 0.562; with BAY61-3606 + Trametinib (first compound 0.06325 µM), 0.512; with BAY61-3606 + Trametinib (first compound 0.2 µM), 0.482. In addition, the relative viability with BAY61-3606 + Trametinib (first compound 0.6325 µM) was 0.532; in the assay with BAY61-3606 + Trametinib (first compound 2 µM), 0.406.
With SK-MES-1, the relative viability in the assay with Doxorubicin + Vorinostat (first compound 0.001 µM) amounted to 1.04; in the assay with Doxorubicin + Vorinostat (first compound 0.003162 µM), 1.15; with Doxorubicin + Vorinostat (first compound 0.01 µM), 0.996; with Doxorubicin + Vorinostat (first compound 0.03162 µM), 0.251; in the assay with Doxorubicin + Vorinostat (first compound 0.1 µM), 0.233; with BAY61-3606 + Alpelisib (first compound 0.02 µM), 1.02. In addition, the relative viability with BAY61-3606 + Alpelisib (first compound 0.06325 µM) was 0.968; with BAY61-3606 + Alpelisib (first compound 0.2 µM), 1; in the assay with BAY61-3606 + Alpelisib (first compound 0.6325 µM) it was 0.986; in the assay with BAY61-3606 + Alpelisib (first compound 2 µM), 0.7; in the assay with BAY61-3606 + Phenformin (first compound 0.02 µM), 0.729; with BAY61-3606 + Phenformin (first compound 0.06325 µM), 0.586. Also, the relative viability was found to be 0.633 with BAY61-3606 + Phenformin (first compound 0.2 µM); 0.685 in the assay with BAY61-3606 + Phenformin (first compound 0.6325 µM); 0.57 with BAY61-3606 + Phenformin (first compound 2 µM); 0.619 with BAY61-3606 + Trametinib (first compound 0.02 µM); 0.541 in the assay with BAY61-3606 + Trametinib (first compound 0.06325 µM); 0.518 with BAY61-3606 + Trametinib (first compound 0.2 µM). The relative viability with BAY61-3606 + Trametinib (first compound 0.6325 µM) was 0.579; with BAY61-3606 + Trametinib (first compound 2 µM), 0.503.
Consider SW 1573, for which the relative viability was 0.725 with Doxorubicin + Vorinostat (first compound 0.001 µM); 0.481 with Doxorubicin + Vorinostat (first compound 0.003162 µM); 0.233 with Doxorubicin + Vorinostat (first compound 0.01 µM); 0.109 with Doxorubicin + Vorinostat (first compound 0.03162 µM); 0.104 with Doxorubicin + Vorinostat (first compound 0.1 µM); 0.838 in the assay with BAY61-3606 + Alpelisib (first compound 0.02 µM). Besides, the relative viability stood at 0.679 in the assay with BAY61-3606 + Alpelisib (first compound 0.06325 µM); 0.88 with BAY61-3606 + Alpelisib (first compound 0.2 µM); 0.822 in the assay with BAY61-3606 + Alpelisib (first compound 0.6325 µM); 0.451 in the assay with BAY61-3606 + Alpelisib (first compound 2 µM); 0.288 in the assay with BAY61-3606 + Phenformin (first compound 0.02 µM); 0.336 with BAY61-3606 + Phenformin (first compound 0.06325 µM). Also, the relative viability with BAY61-3606 + Phenformin (first compound 0.2 µM) is 0.342; with BAY61-3606 + Phenformin (first compound 0.6325 µM) it was 0.328; in the assay with BAY61-3606 + Phenformin (first compound 2 µM), 0.166; with BAY61-3606 + Trametinib (first compound 0.02 µM), 0.566; in the assay with BAY61-3606 + Trametinib (first compound 0.06325 µM), 0.668; with BAY61-3606 + Trametinib (first compound 0.2 µM) it was 0.533. The relative viability is 0.578 with BAY61-3606 + Trametinib (first compound 0.6325 µM) and 0.341 with BAY61-3606 + Trametinib (first compound 2 µM).
